This note sets out measurements from patent publication EP0998946A1, “Non-porphyrin compound for use as a diagnosticum and/or pharmaceutical” (K.U. LEUVEN RESEARCH & DEVELOPMENT, priority 1998, dated 2000).

Series [1] concerns Reperfused hepatic infarction in rats. The series is described as follows: MRI contrast enhancement, reperfused hepatic infarction in rats. It is filed as in vivo, Wistar rats.
The next series deals with mice. The series is described as follows: Acute lethal toxicity (LD50) in mice.
For a further series, the system named is rats. The series is described as follows: Acute lethal toxicity (LD50) in rats. The conditions noted are these: 5.0 mmol/kg.
The subject of series [2] is Acute myocardial infarction. The series is described as follows: MRI contrast enhancement, acute reperfused myocardial infarction in dogs. In kind it is in vivo, Mongrel dogs. The conditions noted are these: dog.
Series [3] concerns Acute myocardial infarction. Description: MRI contrast enhancement, reperfused myocardial infarction in rabbits. Conditions: rabbit heart, 18 hours after IV injection at 0.05 mmol/kg, T1-w spin echo. It is filed as in vivo, New Zealand rabbits.
In series [4] the test system is reperfused hepatic infarction. The series is described as follows: Scintigraphic imaging and infarction to normal tissue radioactivity ratio. In kind it is in vivo, rat. Conditions: 74 MBq. As to the method: Two effective and reproducible animal models have been induced and used in the in vivo assessment of newly synthesized agents. • 1. Reperfused hepatic infarction in rats: adult Wistar rats weighing about 350 grams were anesthetized with intraperitoneal injection of pentobarbital (Nembutal®, 40 mg/kg, Sanofi Sante Animale, B-1130 Brussels, Belgium). Under laparotomy, reperfused hepatic infarction was induced by temporarily clamping the hilum of the right liver lobes for 3 hours. The abdominal cavity was then closed and the rats were allowed to recover from surgery. • 2. Acute myocardial infarction in rabbits and dogs: under general anesthesia with Nembutal® at 6 mg/kg/h and intubated ventilation, adult New Zealand rabbits of 3 kg or Mongrel dogs of 20 kg underwent open-chest surgery through the seventh intercostal space. The left anterior descending (LAD) or circumflex (Cx) branch of the coronary artery was encircled and occluded with a snare-occluder for 150 minutes and reopened by losing the occluder to induce irreversible reperfused AMI. The thoracic cavity was closed by layers with the free air expelled.
[…] This animal was prepared as described above. Scintigraphic images were acquired during 1 to 5 minutes at regular time intervals up to 24 h after injection, using a Triad-gamma camera equipped with an ultra-high resolution parallel collimator.
After sacrificing the animal, organs were isolated and necrotic and viable liver parts were separated and weighed. Their 99m Tc radioactivity was measured using a sodium iodine scintillation detector coupled to a multichannel analyzer. The activity per gram tissue was a factor of 3.2 higher in necrotic liver tissue as compared to normal liver tissue.
This imaging result has been confirmed by radioactivity counting with a factor of more than 3 between infarcted and normal liver tissues.

For the next series, the system named is necrotic liver. Description: Biodistribution: tissue Gd content by ICP-AES in rats. The conditions noted are these: Gadophrin-2 comparison.
Setting [5] is: rat, 0.05 mmol/kg, T1 weighted spin echo.

`CNC[C@H](O)[C@@H](O)[C@H](O)[C@H](O)CO.CNC[C@H](O)[C@@H](O)[C@H](O)[C@H](O)CO.O=C([O-])CN(CCN(CC(=O)[O-])CC(=O)O)CCN(CC(=O)[O-])CC(=O)O.[Gd+3]` [Gd-DTPA, reference compound]: the “contrast enhancement of the lesions” value in series [1] (T1 weighted MRI, hepatic and myocardial infarcts, iv 0.05 mmol/kg (Gd-DTPA 0.1 mmol/kg), degree and duration equal to that with Gadophrin-2) is recorded as “only enhances nonspecifically the lesions at the early phase (<2h)”.

For “N,N'-Bis(diethylenetriamino penta-acetato)-4,4'-methylene bis(3-hydroxy-2-naphthalene carboxylic hydrazide), Gd-complex, sodium salt [ECIII-60]”, the figures for the “No. Deaths/No. animals” value in the series on mice (2.15 mmol/kg), in the series on mice (5.0 mmol/kg) and in the series on rats were 0/4, 3/3 and 4/4, respectively. Moreover, in series [2] (eighteen hours after contrast, 0.05 mmol/kg IV), the “enhancement at the infarcted papillary muscle” value is given as “extremely strong enhancement”. Further, in series [2] (ten minutes after IV injection at 0.05 mmol/kg, T1-w turbo-FLASH), the “signals of blood pool and papillary muscle” value is “strongly enhanced”. Further, the “signal intensity of infarcted liver versus normal liver” value in series [1] (rat, 0.05 mmol/kg, 60 minutes after injection, T1 weighted spin echo) is given as “surpassed that of normal liver”. The “time at which the necrosis-to-normal contrast reached maximum” value in series [1] (setting [5]) was 24 h. For the same molecule, the “time until the enhancement of the necrosis became homogeneous” value in series [1] (setting [5]) is “within a couple of hours”. For the same molecule, the “enhancement of the transmural infarct” value in series [3] is listed as “persistently enhanced”.

With “N,N'-Bis(diethylenetriamino penta-acetato)-4,4'-methylene bis(3-hydroxy-2-naphthalene carboxylic hydrazide), technetium-99m complex, sodium salt [Example 3]”, the nuclear scintigraphy finding result in series [4] (rat with reperfused right liver lobe infarction, 24 hours after administration) is listed as “hot spot caused by accumulation tracer in the necrotic liver lobe only”. The “activity per gram tissue, factor necrotic liver tissue versus normal liver tissue” value in series [4] (rat, 99mTc radioactivity of isolated liver parts after sacrifice) turned out to be 3.2. Also, the “scintigraphic visualization of the infarcted region” value in series [4] (rat, images acquired 20 h after injection) was “Clear visualization of the infarcted region”. Moreover, in series [4] (rat, 24 hours after administration), the “radioactivity counting, factor between infarcted and normal liver tissues” value is “more than 3”.

As to gadolinium mesoporphyrin [Gadophrin-2], the “Gadolinium content, proportion necrotic liver to normal liver” value in the series with necrotic liver is reported as “one-to-one”.
